Tests used:
Assay in all cases: relative viability (nuclei count vs DMSO), 5 days (fraction); higher = more cells survive
[1] = compound: C1COCCN1C2=NC(=NC3=C2OC4=C3C=CC=N4)C5=CC(=CC=C5)NC(=O)C6=CN=C(C=C6)N + Nc1nc2[nH]cc(CCc3ccc(C(=O)N[C@@H](CCC(=O)O)C(=O)O)cc3)c2c(=O)[nH]1 [Pemetrexed] (partner 0.2 µM)
In short: (§1)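 Values are medians from duplicate plates. Each reflects relative viability, defined as the nuclei count of treated wells over that of vehicle wells. Lung cancer cell lines in 1536-well plates were pin-tool dosed one day after seeding with one drug alone or with a fixed anchor-drug dose plus five library-drug doses (not always all listed) in √10 steps, then fixed, stained and imaged at 4× after 5 days.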

SGI-1776 + AZD7762 = compound: CN1CCC(CNc2ccc3ncc(-c4cccc(OC(F)(F)F)c4)n3n2)CC1 [SGI-1776] + NC(=O)Nc1cc(-c2cccc(F)c2)sc1C(=O)N[C@H]1CCCNC1 [AZD7762] (partner 0.2 µM)
In short: as §1

Entinostat + Foretinib = compound: Nc1ccccc1NC(=O)c1ccc(CNC(=O)OCc2cccnc2)cc1 [Entinostat] + COc1cc2c(Oc3ccc(NC(=O)C4(C(=O)Nc5ccc(F)cc5)CC4)cc3F)ccnc2cc1OCCCN1CCOCC1 [Foretinib] (partner 0.25 µM)
In short: as §1

Entinostat + Dasatinib = compound: Nc1ccccc1NC(=O)c1ccc(CNC(=O)OCc2cccnc2)cc1 [Entinostat] + Cc1nc(Nc2ncc(C(=O)Nc3c(C)cccc3Cl)s2)cc(N2CCN(CCO)CC2)n1 [Dasatinib] (partner 0.075 µM)
In short: as §1

Cell Line | relative viability ([1]; first compound 0.02 µM) | relative viability ([1]; first compound 0.06325 µM) | relative viability ([1]; first compound 0.2 µM) | relative viability ([1]; first compound 0.6325 µM) | relative viability ([1]; first compound 2 µM) | relative viability (SGI-1776 + AZD7762; first compound 0.08 µM) | relative viability (SGI-1776 + AZD7762; first compound 0.8 µM) | relative viability (SGI-1776 + AZD7762; first compound 2.53 µM) | relative viability (SGI-1776 + AZD7762; first compound 8 µM) | relative viability (Entinostat + Foretinib; first compound 0.02 µM) | relative viability (Entinostat + Foretinib; first compound 0.06325 µM) | relative viability (Entinostat + Foretinib; first compound 0.2 µM) | relative viability (Entinostat + Foretinib; first compound 0.6325 µM) | relative viability (Entinostat + Foretinib; first compound 2 µM) | relative viability (Entinostat + Dasatinib; first compound 0.02 µM) | relative viability (Entinostat + Dasatinib; first compound 0.06325 µM) | relative viability (Entinostat + Dasatinib; first compound 0.2 µM) | relative viability (Entinostat + Dasatinib; first compound 0.6325 µM) | relative viability (Entinostat + Dasatinib; first compound 2 µM)
HCC-366 | 0.186 | 0.189 | 0.195 | 0.219 | 0.0985 | 0.248 | 0.263 | 0.298 | 0.26 | 0.994 | 0.992 | 0.685 | 0.265 | 0.0997 | 0.679 | 0.663 | 0.527 | 0.512 | 0.196
NCI-H2405 | 1.04 | 1.11 | 1.03 | 0.968 | 0.989 | 0.706 | 0.728 | 0.57 | 0.608 | 1.06 | 1.11 | 0.979 | 0.902 | 0.614 | 0.239 | 0.208 | 0.217 | 0.182 | 0.129
NCI-H1355 | 1.04 | 1.05 | 1.01 | 0.944 | 0.924 | 0.782 | 0.772 | 0.657 | 0.642 | 0.903 | 0.91 | 0.751 | 0.695 | 0.571 | 0.69 | 0.687 | 0.583 | 0.429 | 0.306
NCI-H1793 | 0.818 | 0.86 | 0.626 | 0.621 | 0.632 | 0.558 | 0.408 | 0.32 | 0.252 | 0.678 | 0.753 | 0.782 | 0.472 | 0.326 | 0.422 | 0.404 | 0.376 | 0.228 | 0.192
NCI-H1734 | 0.393 | 0.427 | 0.36 | 0.351 | 0.33 | 0.616 | 0.687 | 0.654 | 0.568 | 0.883 | 0.939 | 0.929 | 0.773 | 0.603 | 0.486 | 0.585 | 0.578 | 0.476 | 0.403
LXF-289 | 0.945 | 1 | 0.873 | 0.923 | 0.647 | 1.06 | 1.13 | 1.16 | 1.09 | 1.01 | 0.916 | 0.88 | 0.825 | 0.59 | 0.209 | 0.261 | 0.177 | 0.178 | 0.185
PC-3 [JPC-3] | 1.21 | 1.09 | – | 1.08 | 1.17 | 0.921 | 0.872 | 0.685 | 0.609 | 0.988 | 0.977 | 0.871 | 0.732 | 0.41 | 1.07 | 0.87 | 0.95 | 0.666 | 0.405
NCI-H2087 | 0.653 | 0.611 | 0.61 | 0.619 | 0.258 | 1.29 | 1.36 | 1.44 | 1.27 | 1.18 | 1.04 | 0.89 | 0.352 | 0.256 | 1 | 0.837 | 0.711 | 0.373 | 0.204
NCI-H2170 | 0.263 | 0.274 | 0.259 | 0.258 | 0.247 | 0.839 | 0.966 | 0.874 | 0.828 | 0.978 | 1.05 | 0.964 | 0.597 | 0.613 | 0.532 | 0.636 | 0.69 | 0.558 | 0.365
HCC-78 | 0.913 | 0.944 | 0.926 | 0.929 | 0.64 | 0.665 | 0.726 | 0.579 | 0.538 | 0.559 | 0.479 | 0.39 | 0.297 | 0.264 | 0.432 | 0.39 | 0.316 | 0.277 | 0.291
NCI-H1395 | 0.941 | 0.87 | 0.735 | 0.643 | 0.692 | 0.424 | 0.432 | 0.393 | 0.402 | 1 | 1.03 | 0.994 | 0.846 | 0.68 | 0.477 | 0.425 | 0.42 | 0.286 | 0.405
H3255 | 0.507 | 0.558 | 0.528 | 0.524 | 0.491 | 1.05 | 0.899 | 0.939 | 0.728 | 0.889 | 0.89 | 0.639 | 0.567 | 0.381 | 0.397 | 0.37 | 0.27 | 0.32 | 0.265
HCC-15 | 0.225 | 0.228 | 0.217 | 0.218 | 0.242 | 1.05 | 1.12 | 1.34 | 1.21 | 0.984 | 0.886 | 0.802 | 0.592 | 0.331 | 0.664 | 0.749 | 0.595 | 0.33 | 0.178
ChaGo-K-1 | 0.271 | 0.256 | 0.251 | 0.237 | 0.237 | 0.892 | 0.875 | 0.912 | 0.859 | 1.06 | 0.914 | 0.893 | 0.842 | 0.673 | 0.709 | 0.554 | 0.671 | 0.526 | 0.553
EMC-BAC-2 | 0.458 | 0.462 | 0.465 | 0.462 | 0.444 | 1.12 | 1.16 | 1.09 | 0.928 | 1.03 | 0.938 | 0.814 | 0.608 | 0.513 | 0.349 | 0.318 | 0.298 | 0.177 | 0.109
LCLC-97TM1 | 0.199 | 0.195 | 0.181 | 0.203 | 0.2 | 0.302 | 0.313 | 0.204 | 0.304 | 1.05 | 0.934 | 1 | 0.995 | 0.844 | 0.882 | 0.646 | 0.748 | 0.782 | 0.615
LK-2 | 0.291 | 0.238 | 0.284 | 0.208 | 0.24 | 0.423 | 0.54 | 0.324 | 0.236 | 1.02 | 1.31 | 0.905 | 0.683 | 0.543 | 0.292 | 0.389 | 0.388 | 0.286 | 0.301
